Assay results as given in patent US20190350955A1, “METHODS AND PHARMACEUTICAL COMPOSITIONS FOR THE TREATMENT OF CARDIOMYOPATHIES” (INSERM (Institut National de la Sante et de la Recherche …, priority 2016, published 2019).

Legend:
Type in all cases: in vivo, mouse
Lmna^WT/WT mice = assay: Echocardiography in NR-diet wild type mice; conditions: whatever the diet and the course of the treatment
Method: (§1) Mice were bred in an accredited animal facility (accreditation number: C-75-13-08). All experiments on mice were approved by the Comité d'éthique en expérimentation animate Charles Darwin No 5. Mice Lmna^H222P/H222P were backcrossed 8 times to 129S2/SvPasOrlRj strain mice to obtain pure genetic background. Male mice used for the studies were maintained under a 12 h light/12 h dark cycle at constant temperature (23° C.) with free access to food and water. Nicotinamide riboside (NR) complementation: Animals at 17 weeks of age were fed for 9 weeks with either a chow diet (A04: Scientific Animal Food & Engineering) or a chow diet complemented with 0.25% of NR (kindly provided by ChromaDex, Inc. California) corresponding to a dose of 400 mg/kg/day for a mouse weighing 25 g eating 4 g of food per day. […]
Mouse transthoracic echocardiography was performed using an ACUSON 128XP/10 ultrasound with a 11 Mhz linear probe (Mountain View).MHz transducer applied to the chest wall. […] The intra ventricular septum (IVS), LV posterior wall (LVPW), LV diameter (LVD) in diastole and systole, the percentage of fractional shortening (FS) and the heart rate (HR) were measured from the mean of at least three separate cardiac cycles. […]

Lmna^H222P/H222P mice = assay: Immunoblotting of PARylation, PARP-1, AIF, cleaved-caspase 3 in heart; conditions: NR treated Lmna H222P/H222P mice
Method: as §1
Total proteins were extracted in a glass teflon potter from around 5 mg of mouse heart in […] of Cell Lysis Buffer (Cell Signaling) completed with Deacetylation Inhibitors Cocktail (Santa Cruz). Total protein concentration was assessed with BCA™ Protein Assay (Pierce). […] The signal was captured with a CCD camera (G:Box Syngene) and quantified with ImageJ imaging Software (imagej.net).

control mice = assay: Echocardiography of control (Sf/Sf) mice on NR diet; conditions: D45 to D47
From the text: Transgenic mice. All experiments with animals conformed to the Directive 2010/63/EU of the European Parliament and were approved by the ethics committee Charles Darvin #5 (agreement 00369.01). SRF^HKO mice bear the tamoxifen-inducible α-MHC-MerCrMer transgene and the Siffloxed allele (Sf/Sf) as described previously (Parlakian et al. (2005). Temporally controlled onset of dilated cardiomyopathy through disruption of the SRF gene in adult heart. Journal 112, 2930-2939; Tritsch et al. (2013). An SRF/miR-1 axis regulates NCX1 and Annexin A5 protein levels in the normal and failing heart. Journal 98, 372-380). Transgenic mice have been bred for more than 20 generations in C57BL/6N background. […]
Echocardiography was performed on lightly anesthetized mice given isoflurane (induction with 2% isoflurane 100% O2. and maintained with 0.5% isoflurance 100% O2). Non-invasive measurements of left ventricular dimensions were evaluated using Doppler echocardiography (Vivid 7 Dimension/Vivid7 PRO; GE Medical Systems) with a probe ultrasound frequency range of 9-14 MHz. […] LV fractional shortening (FS) was calculated using the formula: (LVEDD−LVESD)/LVEDD×100. LV myocardial volume (LVV), LV end-diastolic volume (EDV), and end-systolic volume (ESV) were calculated using a half-ellipsoid model of the LV. From these volumes, LV ejection fraction (EF) was calculated using, the formula: (EDV−ESV)/EDV×100. […]

## NC(=O)c1ccc[n+]([C@@H]2O[C@H](CO)[C@@H](O)[C@H]2O)c1 [NR, nicotinamide riboside]
Lmna^WT/WT mice
  cardiac structure and function by echocardiography: No difference
Lmna^H222P/H222P mice
  PARP-1, AIF and cleaved-caspase 3 in heart: activation
  PARylation in heart: increase
Control mice
  H/R ratio: slightly increased
